The values below are quoted from earlier work in patent US10864334B2, “Nasal delivery” (OptiNose AS, priority 2006, dated 2020).

The conditions of data set [1]: in vivo.
For data set [2] the following is noted: intranasal; aqueous spray versus nasal drops; systemic bio-availability.

Read-outs that look alike come from different tables or passages of the source.

Take `NC(=O)CC[C@@H]1NC(=O)[C@H](Cc2ccccc2)NC(=O)[C@H](Cc2ccc(O)cc2)NC(=O)CCSSC[C@@H](C(=O)N2CCC[C@H]2C(=O)N[C@H](CCCN=C(N)N)C(=O)NCC(N)=O)NC(=O)[C@H](CC(N)=O)NC1=O` [desmopressin]: in data set [1], the “bio-availability of the nasal spray formulation relative to the nasal drop formulation” value is “two to three times higher”. For `CCC(=O)O[C@]1(C(=O)SCF)[C@H](C)C[C@H]2[C@@H]3C[C@H](F)C4=CC(=O)C=C[C@]4(C)[C@@]3(F)[C@@H](O)C[C@@]21C` [fluticasone propionate], the “bio-availability of the nasal spray formulation relative to the nasal drop formulation” value in data set [2] was “about eight times higher”.
